In assay [1] the test system is HEK293. Description: IC50 for inhibition of ZIKV NS1 production. As to the method:
(§1)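 HEK293 cells in 1536-well plates were pre-treated with compound for 1 h, infected with ZIKV (MOI 1) for 24 h, and NS1 antigen (intra- plus extracellular) was measured by TR-FRET. Confirmation used 11-point 1:3 dilutions, and IC50 and maximal inhibition were fitted in GraphPad Prism.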

The test system of assay [2] is HEK293. Briefly: maximal inhibition of ZIKV NS1 production (% inhibition); higher = stronger antiviral effect. Here is the method: as §1
Assay [3] has as its system HEK293. Briefly: cytotoxicity IC50 (ATP content, uninfected cells); higher = less cytotoxic. Particulars: infection: none.

The structures appear in SMILES notation. Some results are limits rather than exact numbers.

In turn, `O=C(c1ccc(Nc2nccc(-c3cc4ccccc4s3)n2)cc1)N1CCC(N2CCCC2)CC1` came in with a 50% inhibitory concentration (IC50) in assay [1] of 16 µM. In assay [2], this compound yielded a maximal inhibition of 100. Moreover, the “cytotoxicity IC50” value in assay [3] was more than 100 µM.
The like results for `CC[C@H]1CN2CCc3cc(OC)c(OC)cc3[C@@H]2C[C@@H]1C[C@H]1NCCc2cc(OC)c(OC)cc21` were, in that order, 0.11 µM, 103 and more than 100 µM.
In assay [1], `Cc1ccc(-c2ncn(-c3ccc(Nc4nccc(-c5cccc(N6CCOCC6)c5)n4)cc3)n2)cn1` came in with an IC50 of 1.9 µM. Besides, the maximal inhibition in assay [2] was found to be 87. In addition, the “cytotoxicity IC50” value in assay [3] was found to be 9.8 µM.
The like results for `CC(=O)O[C@H]1C(=O)[C@@]2(C)[C@H]([C@H](OC(=O)c3ccccc3)[C@]3(O)C[C@H](OC(=O)[C@H](O)[C@@H](NC(=O)c4ccccc4)c4ccccc4)C(C)=C1C3(C)C)[C@]1(OC(C)=O)CO[C@@H]1C[C@@H]2O` were, in that order, 0.089 µM, 38 and more than 100 µM.
The like results for `c1ccc2c(CCNc3ccc(Nc4ccncc4)cc3)c[nH]c2c1` were, in that order, 23 µM, 51 and more than 100 µM.
The like results for `COc1cccc2c1C(=O)c1c(O)c3c(c(O)c1C2=O)C[C@@](O)(C(=O)CO)C[C@@H]3O[C@H]1C[C@H](N)[C@H](O[C@@H]2CCCCO2)[C@H](C)O1` were, in that order, 5.6 µM, 75 and more than 100 µM.
The compound `C[C@@H]1O[C@@H](O[C@@H]2C=C3CC[C@@H]4[C@H](CC[C@]5(C)[C@@H](c6ccc(=O)oc6)CC[C@]45O)[C@@]3(C)CC2)[C@H](O)[C@H](O)[C@H]1O` gave an IC50 in assay [1] of 0.027 µM. Besides, in assay [2], the maximal inhibition was 105. In assay [3], the “cytotoxicity IC50” value came out at 0.011 µM.
In the case of `COC[C@H](NC(=O)c1cnc(C)s1)C(=O)N[C@@H](COC)C(=O)N[C@@H](Cc1ccccc1)C(=O)[C@@]1(C)CO1`, the IC50 in assay [1] worked out at 0.32 µM. Further, the maximal inhibition in assay [2] came out at 100. In assay [3], the “cytotoxicity IC50” value was determined as 0.72 µM.
The corresponding values for `CCOC(=O)N1CCN(/[N+]([O-])=N/Oc2ccc([N+](=O)[O-])cc2C#N)CC1` are 4.5 µM, 74 and more than 100 µM.
The like results for `O=C1CCc2ccc(OCCCCN3CCN(c4cccc(Cl)c4Cl)CC3)cc2N1` were, in that order, 25 µM, 102 and 20 µM.
The corresponding values for `O=C(O)c1ccc2cc(-c3ccc(O)c(C45CC6CC(CC(C6)C4)C5)c3)ccc2c1` are 1.7 µM, 97 and 45 µM.
`O=C1NC(=O)[C@@H](c2cn3c4c(cccc24)CCC3)[C@@H]1c1c[nH]c2ccccc12` returned an IC50 in assay [1] of 18 µM. The compound further returned a maximal inhibition in assay [2] of 86. For the same compound, the “cytotoxicity IC50” value in assay [3] is 1.6 µM.
The corresponding values for `CC[C@@]1(O)C(=O)OCc2c1cc1n(c2=O)Cc2cc3cc(O)ccc3nc2-1` are 0.047 µM, 100 and more than 100 µM.
The corresponding values for `COc1cccc2c(NCc3ccccc3)nc(-n3c(N)nc4ccccc43)nc12` are 50 µM, 100 and 30 µM.
The like results for `CC(C)(C)c1cnc(CSc2cnc(NC(=O)C3CCNCC3)s2)o1` were, in that order, 1.9 µM, 93 and more than 100 µM.
The compound `COC(=O)Nc1nc2cc(C(=O)c3ccccc3)ccc2[nH]1` gave an IC50 in assay [1] of 1 µM. The compound also returned a maximal inhibition in assay [2] of 69. Besides, the “cytotoxicity IC50” value in assay [3] is more than 100 µM.
The corresponding values for `CCOC(=O)C1=C(C)NC(=S)NC1c1cccc(O)c1` (stereo unspecified) are 50 µM, 89 and more than 100 µM.
The corresponding values for `O=[N+]([O-])c1ccc2c(c1)S(=O)(=O)C=C2` are 11 µM, 103 and 7.2 µM.
As for `Cc1ccc([N+](=O)[O-])cc1S(=O)(=O)N(C)/N=C/c1cnc2ccc(Br)cn12`, the IC50 in assay [1] was 0.62 µM. Further, in assay [2], the maximal inhibition was 101. Moreover, in assay [3], the “cytotoxicity IC50” value was more than 100 µM.
For the compound `CCc1c2c(nc3ccc(OC(=O)N4CCC(N5CCCCC5)CC4)cc13)-c1cc3c(c(=O)n1C2)COC(=O)[C@]3(O)CC`, the IC50 in assay [1] is 1.6 µM. In addition, the maximal inhibition in assay [2] worked out at 97. The “cytotoxicity IC50” value in assay [3] was more than 100 µM.
The like results for `Cn1c(CCCC(=O)O)nc2cc(N(CCCl)CCCl)ccc21` were, in that order, 50 µM, 92 and more than 100 µM.
The like results for `OCCCNc1cc(-c2ccnc(Nc3cccc(Cl)c3)n2)ccn1` were, in that order, 0.79 µM, 103 and 60 µM.

The values above are taken from the supplement of paper PMC8498969.
